Source: patent publication US5296481A, “Treatment process for promoting weight loss employing a substituted Δ 5” (Humanetics Corporation, priority 1992, dated 1994)

Columns and labels:
[1] = test system: Cytosolic malic enzyme, rat liver; assay: Cytosolic malic enzyme activity in liver of steroid-fed rats (enzyme induction in rat liver by C19 steroids); type: in vivo, rat (male Sprague Dawley); conditions: 6 days, rat liver cytosol
Description: (§1) Administration of Hormone: Male Sprague Dawley rats weighing 125-150 gm were obtained from Sasco Inc. of Oregon, Wis. The rats were allowed free access to water and Purina Rat Chow pellets for the first day after arrival Administration of the steroids began on day two. The steroids were either administered orally (combined with the Purina Rat Chow) or injected intraperitoneal as set forth in Table 1 for 6 days.
(§2) Preparation of Liver Mitochondria and Cytosol. The treated rats were sacrificed by decapitation after 6 days of treatment. The livers were excised, placed in 10 ml of a buffer consisting of 250 mM mannitol, 70 mM sucrose, and 3 mM Hepes (hereinafter MSH buffer) at pH 7.4, weighed, removed from the buffer, minced with scissors, washed with MSH buffer, suspended in MSH buffer at a ratio of 1 gram minced liver to 5 ml MSH buffer, and homogenized with a Potter-Elvehjem rotary homogenizer.
The Cytosolic fraction was obtained by recentrifuging the previously centrifuged supernatant solution at 100,000 g for 30 minutes in a Beckman Model L2 ultracentrifuge, type 40 rotor. The resultant supernatant solution was stored at -70° C.
(§3) Protein concentrations in the resultant preparations were determined by the Biuret method described in Layne E., Methods Enzymology, vol. 3, pp 450451 (1957) which is hereby incorporated by reference. Briefly, the protein concentrations were determined by treating a dilute protein solution with copper tartrate solution and measuring the optical density at 540 nm.
Cytosolic malic enzyme activity was measured in accordance with the method described in Hsu, R. Y. and Lardy, H. A., Methods Enzymol., vol. 8, pp 230-235 (1967). Briefly, aliquots of the previously prepared cytosol containing 0.1 to 0.5 mg of protein were incubated in a test tube containing 0.8 mM malate, 67 mM triethanolamine buffer (pH 7.4), 4 mM MnCl2, and 0.2 mM NADP in a total volume of 1 ml for 3 min at 26° C. Activity of malic enzyme was calculated from the rate of change in optical density measured at 340 nm from 0.5 to 2 minutes with an On Line Instrument Systems, Model 3820 Data System, Spectrophotometry, Cary--15, Version 4.08.

[2] = test system: Mitochondrial G3P-DH (glycerol 3-phosphate dehydrogenase), rat liver; assay: Mitochondrial G3P-DH activity in liver of steroid-fed rats (enzyme induction in rat liver by C19 steroids); type: in vivo, rat (male Sprague Dawley); conditions: 6 days, rat liver mitochondria
Description: as §1, §2
The Mitochondria fraction was prepared by the method described in Johnson, D. and Lardy, H. A., Methods Enzymology, vol. 10, pp 94-96 (1967) which is hereby incorporated by reference. Briefly, liver homogenate was centrifuged in a Beckman Model J2-21 centrifuge, JA-20 rotor at 750 g for 10 minutes and the resulting supernatant solution centrifuged at 15,000 g for an additional 10 minutes. The resulting mitochondrial pellets were washed twice with MSH buffer, resuspended in 0.8 to 1 ml of a 35 wt % aqueous glycerol solution, and stored at -70° C.
as §3
Enzyme Assays. Mitochondrial G3P-DH activity was measured by the method described in Wernette, M. E., Ochs, R. S., and Lardy, H. A., J. Biol. Chem., vol. 256, pp 12767-12771 (1981) which is a modified version of the method described in Gardner, R. S., Anal. Biochem., vol. 59, pp 272-276 (1974). Both references are hereby incorporated by reference. Briefly, aliquots of the previously prepared mitochondria containing 0.1 to 0.2 mg of protein were incubated in a test tube containing 50 mM sn-glycerol-3-P,50 mM potassium phosphate (pH 7.0), 1 mM KCN, and 0.2% p-iodonitrotetrazolium violet in a total volume of 0.4 ml for 30 min at 37° C. The incubating mitochondria were continuously agitated during the incubation period by a Dubnoff shaker agitated at 100 cycles/min. Incubation was ceased by the addition of 0.6 ml of 1M acetic acid to the test tube. The iodoformazan formed during the incubation period was extracted into 2 ml of ethyl acetate by adding the ethyl acetate to the test tube, mixing thoroughly, and then decanting the ethyl acetate containing the iodoformazan from the test tube. The optical densities of the iodoformazan containing ethyl acetate layers were read at 490 nm by means of an On Line Instrument Systems, Model 3820 Data System, Spectrophotometry, Cary--15, Version 4 08. An extinction coefficient value of 2.01×10^4 /(M cm) for the iodoformazan product in ethyl acetate was used to calculate enzyme activities.

Row | Compound | Malic Enzyme (% control) ([1]; 0.01 wt % steroid in diet) | Malic Enzyme (% control) ([1]; 0.05 wt % steroid in diet) | Malic Enzyme (% control) ([1]; 0.1 wt % steroid in diet) | G3P-DH (% control) ([2]; 0.01 wt % steroid in diet) | G3P-DH (% control) ([2]; 0.05 wt % steroid in diet) | G3P-DH (% control) ([2]; 0.1 wt % steroid in diet) | also measured
1 | C[C@]12CC[C@H](O)CC1=CC[C@@H]1[C@@H]2CC[C@]2(C)C(=O)CC[C@@H]12 [DHEA, Δ5-androstene 3β-hydroxy, 17-one, reference compound] | 64 | 337 | 394 | 139 | 251 | 265 | Malic Enzyme (% control) ([1]; 0.2 wt % steroid in diet): 512 % control; G3P-DH (% control) ([2]; 0.2 wt % steroid in diet): 380 % control
2 | CC(=O)O[C@H]1CC[C@@]2(C)C(=CC(=O)[C@@H]3[C@@H]2CC[C@]2(C)C(=O)CC[C@@H]32)C1 [Δ5-Androstene-3β-ol-7,17-one acetate, Δ5-Androstene 3β-acetoxy-7,17-dione] |  |  |  |  |  |  | Malic Enzyme (% control) ([1]; 0.115 wt % steroid in diet): 447 % control; G3P-DH (% control) ([2]; 0.115 wt % steroid in diet): 261 % control
3 | CC(=O)O[C@H]1CC[C@@]2(C)C(=CC(=O)[C@H]3[C@@H]4CC[C@H](OC(C)=O)[C@@]4(C)CC[C@@H]32)C1 [Δ5-androstene 3β,17β-diol-7-one diacetate] | 119 |  |  | 173 |  |  | Malic Enzyme (% control) ([1]; 0.13 wt % steroid in diet): 452 % control; G3P-DH (% control) ([2]; 0.13 wt % steroid in diet): 232 % control
4 | C[C@]12CC[C@H]3[C@@H]([C@H](O)C=C4C[C@@H](O)CC[C@@]43CO)[C@@H]1CCC2=O [Δ5 Androstene 3β,7α,19-ol-17-one, reference compound] |  |  | 118 |  |  | 117 | 
5 | C[C@]12CC[C@H](O)CC1=C[C@@H](O)[C@@H]1[C@@H]2CC[C@]2(C)C(=O)CC[C@@H]12 [Δ5 Androstene 3β,7α-ol-17-one, Δ5-Androstene 3β,7α-diol-17-one] |  | 423 |  |  | 292 |  | Malic Enzyme (% control) ([1]; 0.033 wt % steroid in diet): 374 % control; G3P-DH (% control) ([2]; 0.033 wt % steroid in diet): 308 % control
6 | C[C@]12CC[C@H]3[C@@H]([C@H](O)C=C4C[C@@H](O)CC[C@@]43C)[C@@H]1CC[C@@H]2O [Δ5-Androstene 3β,7α,17β-triol] | 108 |  | 611 | 99 |  | 227 | 
7 | CC1C=C2C[C@@H](O)CC[C@]2(C)[C@H]2CC[C@]3(C)C(=O)CC[C@H]3[C@H]12 (stereo partly drawn) [Δ5-Androstene-3β-ol-7-methyl-17-one, reference compound] |  |  | 121 |  |  | 91 | 
8 | C[C@]12CC[C@H]3[C@@H](C(=O)C=C4C[C@@H](O)CC[C@@]43C)[C@@H]1CC[C@@H]2O [Δ5-Androstene 3β,17β-diol-7-one, Δ5-Androstene-3β,17β-diol-7-one] | 175 | 305 |  | 130 | 360 | 286 | 
9 | C[C@]12CC[C@H](O)CC1=CC(=O)[C@@H]1[C@@H]2CC[C@]2(C)C(=O)CC[C@@H]12 [7-keto DHEA, Δ5-Androstene-3β-ol-7,17-dione] | 229 | 449 | 350 | 183 | 439 | 220 | Malic Enzyme (% control) ([1]; 0.0575 wt % steroid in diet): 341 % control; G3P-DH (% control) ([2]; 0.0575 wt % steroid in diet): 224 % control
